Columns and labels:
[1] = test system: rabbit progesterone receptor (rbPR) and glucocorticoid receptor (rbGR); experiment: Receptor-binding assays, ratio of relative binding affinities rbPR/rbGR; settings: RBA = EC50 of standard/EC50 of test compound x 100
Description: (§1) Certain antiprogestins were tested in receptor-binding assays for their ability to bind rabbit progesterone receptor (rbPR) and glucocorticoid receptor (rbGR). Briefly, cytosol containing PR or GR were prepared in TEGMD buffer (10 mM Tris, pH 7.2, 1.5 mM EDTA, 0.2 mM sodium molybdate, 10% glycerol, 1 mM DTT) from uterus or thymus, respectively, of estradiol-primed immature rabbits. For PR binding, the cytosol was incubated with 6 nM 1,2-[^3H]progesterone (50.0 Ci/mmole) and competitors were added at concentrations from 2 to 100 nM. For binding to GR, the cytosol was incubated with 6 nM 6,7-[^3H]-dexamethasone (40 Ci/mmol) and test compounds were added at concentrations from 20 to 100 nM. After overnight incubation at 4° C., bound and unbound [^3H] steroids were separated by addition of dextran-coated charcoal and centrifugation at 2100×g for 15 min at 4
C. Supernatants containing the [3H]-steroid receptor complexes were decanted into vials containing 4 ml Optifluor (Packard Instrument Co.), vortexed, equilibrated in a liquid scintillation counter for 30 minutes and then counted for 2 minutes. The ECso (Effective Concentration) for each standard curve and each of the compound curves was determined by entering the counting data into a four parameter sigmoidal computer program (RiaSmart® Immunoassay Data Reduction Program, Packard Instrument Co., Meriden, Conn.). Relative binding affinity (RBA) for each compound was calculated using the following equation: EC50 of standard/EC50 of test compound×100. The standards for the PR and GR assays were unlabeled progesterone and dexamethasone, respectively. The results of these experiments are summarized in Table 1, as a ratio of the relative binding affinities of each compound for the rbPR and rbGR receptors (rbPR/rbGR).

rabbit uterus = experiment: Anti-McGinty and anti-Clauberg assays; type: in vivo; settings: average of anti-McGinty and anti-Clauberg results relative to CDB-2914 = 1.00
Description: Also given in the Table are the relative biological activities of the same compounds in the rabbit uterus by the anti-McGinty and anti-Clauberg assays. Compound CDB-2914 (listed at the end of the Table) was used as the control or reference compound (rabbit Biological Activity=1.00) for these experiments because results of experiments using CDB-2914 have been published before (Hild-Petito et al., 1996; Passaro et al., 1997; Reel et al., 1998; Lamer et al., 2000). For the anti-McGinty test, immature female rabbits received a subcutaneous injection of 5 μg estradiol in 10% ethanol/sesame oil daily for 6 consecutive days. On day 7, animals underwent sterile abdominal surgery to ligate a 3-4 cm segment of both uterine horns. The test compound in appropriate solvent was injected intraluminally into the ligated segment of one uterine horn and vehicle alone into the other. A stimulating dose of progesterone (267 μg/day) was administered subcutaneously to each rabbit daily for the next three days to induce endometrial proliferation. All animals were sacrificed at day 10 for removal of the uterus where a segment central to the ligatures was removed and fixed in 10% neutral buffered formalin and submitted for histological processing. Five micron sections stained with hematoxylin and cosin were evaluated microscopically for the degree of endometrial glandular proliferation. The percent inhibition of endometrial proliferation for each rabbit was calculated and the mean of the group of five animals recorded. For the Anti-Clauberg test, immature female rabbits received a subcutaneous injection of 5 μg estradiol in 10% ethanol/sesame oil daily for 6 consecutive days. On day 7, animals received progesterone by subcutaneous injection (160 μg/day) and the experimental compound in appropriate vehicle orally or subcutaneously for five consecutive days. One group of rabbits received progesterone only. Twenty-four hours after the last dose, all animals were sacrificed for removal of the uterus which was cleaned of all fat and connective tissue, weighed to the nearest 0.2 mg and placed in 10% neutral buffered formalin for subsequent histological processing. Five micron sections stained with hematoxylin and eosin were evaluated microscopically for the degree of endometrial glandular proliferation. The percent inhibition of endometrial proliferation at each dose level of the test compound was derived by comparison with progesterone-stimulated animals alone. The data presented in Table 1 (rabbit Biol. Act.) reflects the average of the results obtained for each compound by the anti-McGinty and anti-Clauberg assays relative to CDB-2914.

[2] = molecular target: T1, glucocorticoid receptor (rbGR) (Oryctolagus cuniculus, UniProt P59667); experiment: Glucocorticoid receptor binding; set-up: species or system rabbit
T1 construct: cytosol containing PR or GR were prepared in TEGMD buffer; from tissue; host or cells: thymus of estradiol-primed immature rabbits (cytosol)
T1 sequence (P59667 1-772): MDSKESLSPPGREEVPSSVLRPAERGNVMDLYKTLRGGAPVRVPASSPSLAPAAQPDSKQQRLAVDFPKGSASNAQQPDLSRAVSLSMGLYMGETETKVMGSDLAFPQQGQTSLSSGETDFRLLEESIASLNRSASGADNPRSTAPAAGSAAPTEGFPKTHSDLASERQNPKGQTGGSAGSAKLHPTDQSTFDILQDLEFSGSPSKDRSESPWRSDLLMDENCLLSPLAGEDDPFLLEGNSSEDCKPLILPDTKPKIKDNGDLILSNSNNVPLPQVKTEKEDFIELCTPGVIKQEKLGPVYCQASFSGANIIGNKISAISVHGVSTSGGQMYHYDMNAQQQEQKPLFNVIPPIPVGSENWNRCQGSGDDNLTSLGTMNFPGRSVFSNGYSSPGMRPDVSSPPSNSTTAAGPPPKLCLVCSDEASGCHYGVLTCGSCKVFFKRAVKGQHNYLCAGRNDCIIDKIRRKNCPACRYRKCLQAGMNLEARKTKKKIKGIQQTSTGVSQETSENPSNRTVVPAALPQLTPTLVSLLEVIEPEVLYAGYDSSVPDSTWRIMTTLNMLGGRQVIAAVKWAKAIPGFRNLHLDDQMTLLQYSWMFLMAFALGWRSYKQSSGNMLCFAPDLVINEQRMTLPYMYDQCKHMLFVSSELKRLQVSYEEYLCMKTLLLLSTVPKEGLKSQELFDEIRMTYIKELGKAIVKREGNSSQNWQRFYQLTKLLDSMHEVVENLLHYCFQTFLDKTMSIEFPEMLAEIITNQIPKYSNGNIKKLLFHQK
Description: as §1, with “Briefly, cytosol containing PR or GR were prepared in TEGMD buffer (10 mM Tris, pH 7.2, 1.5 mM EDTA, 0.2 mM sodium molybdate, 10% glycerol, 1 mM DTT) from uterus or thymus, respectively, of estradiol-primed immature rabbits.” left out
C. Supernatants containing the [3H]-steroid receptor complexes were decanted into vials containing 4 ml Optifluor (Packard Instrument Co.), vortexed, equilibrated in a liquid scintillation counter for 30 minutes and then counted for 2 minutes. […] The standards for the PR and GR assays were unlabeled progesterone and dexamethasone, respectively.

CC(=O)O[C@]1(C(C)=O)CC[C@H]2[C@@H]3CCC4=CC(=O)CCC4=C3[C@@H](c3ccc(N(C)C)cc3)C[C@@]21C [CDB-2914, 17α-acetoxy-11β-(4-N,N-dimethylaminophenyl)-19-norpregna-4,9-dien-3,20-dione, reference compound]
rbPR/rbGR (ratio of the relative binding affinities for rbPR and rbGR) [1]: 1.07
rabbit Biol. Act. (rabbit uterus): 1.00
anti-glucocorticoid receptor activity / glucocorticoid receptor binding (in words) [2]: moderately active in glucocorticoid receptor binding

From patent US20110053900A1, “PROGESTERONE ANTAGONISTS SUCH AS CDB-4124 IN THE TREATMENT OF BREAST CANCER” (Repros Therapeutics inc, priority 2008, published 2011)
